In brackets after ≈: the same amount, converted by molar mass. Where two headings read alike, the source gives them in different places.
Tests used:
staphylococci = assay: Minimum inhibitory concentration, microdilution broth method, staphylococci; format: cell-based; conditions: Staphylococcus aureus, Mueller-Hinton broth, 18-22 hours at 35° C.
Experimental: (§1) Evaluation of the Minimum Inhibitory Concentration of Test Compounds Against A Variety of Bacterial Strains
(§2) In this evaluation the minimal inhibitory concentration (MIC) of test compounds against Gram positive and Gram negative bacteria is performed using the microdilution broth method as recommended by the National Committee for Clinical Laboratory Standards (Approved Standards M7-A5 2000). Mueller-Hinton broth is used for the enterobacteriaceae, staphylococci and enterococci. Streptococci are also tested in Mueller-Hinton broth supplemented with 5% horse blood (LHB). Test organisms include recent clinical isolates that are resistant to methicillin, penicillin and/or vancomycin. […].

[1] = molecular target: E. coli UDP-N-acetylglucosamine enolpyruvoyl transferase, MurA (Escherichia coli, UniProt P0A749); assay: biochemical; conditions: (E) E. coli enzyme
Sequence of E. coli UDP-N-acetylglucosamine enolpyruvoyl transferase, MurA (P0A749 whole entry): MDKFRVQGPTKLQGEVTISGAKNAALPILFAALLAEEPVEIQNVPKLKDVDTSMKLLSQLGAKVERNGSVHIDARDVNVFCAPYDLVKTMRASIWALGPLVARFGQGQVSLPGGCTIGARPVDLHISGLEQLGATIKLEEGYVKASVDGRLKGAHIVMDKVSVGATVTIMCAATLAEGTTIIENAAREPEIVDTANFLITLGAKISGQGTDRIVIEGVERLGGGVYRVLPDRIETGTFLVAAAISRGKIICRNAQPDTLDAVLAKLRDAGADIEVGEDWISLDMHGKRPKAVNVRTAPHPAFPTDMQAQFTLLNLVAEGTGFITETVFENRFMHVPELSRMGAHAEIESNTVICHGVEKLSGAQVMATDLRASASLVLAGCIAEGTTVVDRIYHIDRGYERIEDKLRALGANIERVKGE
Experimental: Evaluation of the Inhibitory Activity of Test Compounds Against Enzymes which Catalyze Bacterial Cell Wall Biosynthesis
S. aureus and E. coli UDP-N-acetylglucosamine enolpyruvoyl transferase, MurA
(§3) Preparation of Enzyme Solution:
The enzyme solution is prepared by admixing the following: 50 mM Tris/HCl pH 8.0, […] 1 M Tris, 5 mM DTT, […] 1 M DTT, 20% Glycerol 4 ml 50% Glycerol, add water to 10 ml.
(§4) Preparation of Stop Solution:
A procedure similar to that described by C. […] Experiments are performed by adding a solution of test compound (in a mixture of dimethylsulfoxide and water) and an enzyme solution to a well. After a pre-incubation period of 10 mintues at 37° C., Tris/BME buffer and assay buffer are added. A start point optical density (OD0) reading is taken at 340 nm immediately following the addition of assay buffer. After incubation for 1 hr at 37° C., the stop solution is added and the color is allowed to develop for 30 minutes.

[2] = molecular target: E. coli Uridine-diphosphate-N-acetvimuramoyl: L-alanine lipase, MurC (Escherichia coli, UniProt P17952); assay: Inhibitory activity against MurC (E. coli); format: biochemical; conditions: (E) E. coli enzyme; for IC50: read-out: MurC IC50 (converted)
Sequence of E. coli Uridine-diphosphate-N-acetvimuramoyl: L-alanine lipase, MurC (P17952 whole entry): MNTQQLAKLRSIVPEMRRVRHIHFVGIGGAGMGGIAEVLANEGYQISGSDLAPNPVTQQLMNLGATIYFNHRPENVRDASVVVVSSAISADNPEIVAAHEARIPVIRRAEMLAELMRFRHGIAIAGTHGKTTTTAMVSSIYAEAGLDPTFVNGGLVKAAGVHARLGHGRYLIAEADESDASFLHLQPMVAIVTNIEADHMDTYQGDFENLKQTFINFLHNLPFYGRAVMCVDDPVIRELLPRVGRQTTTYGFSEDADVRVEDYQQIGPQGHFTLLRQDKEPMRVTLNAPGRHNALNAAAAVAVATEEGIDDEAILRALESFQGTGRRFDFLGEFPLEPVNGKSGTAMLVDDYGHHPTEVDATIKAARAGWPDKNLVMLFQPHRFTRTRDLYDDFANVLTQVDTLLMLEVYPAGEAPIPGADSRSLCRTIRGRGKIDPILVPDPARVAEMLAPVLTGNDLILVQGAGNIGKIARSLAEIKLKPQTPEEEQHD
Experimental: S. aureus and E. coli Uridine-diphosphate-N-acetvimuramoyl: L-alanine lipase, MurC
The buffer is prepared from aqueous reagents with the following final concentrations: 83 mM Tris/HCl (pH 8.0), 50 mM MgC12, and 2 mM ATP.
as §3
A 1 mg/mL stock solution of MurC is prepared in a buffer consisting of 20 mM Tris/HCl (pH 8.5) with 2.5 μM BME. The stock solution is further diluted with the buffer to give a final enzyme concentration of 100 μg/mL for the E. coli stock solution and 70 μg/mL for the S. aureus stock solution.
(§5) Preparation of Test Compound Solutions:
(§6) All test solutions are prepared in DMSO as 10 mg/mL, then diluted with 50 mM Tris/HCl (pH 8.5) to 100 μg/mL.
as §4
The stop solution is prepared by stirring 1 part 4.2% ammonium molydbate in 4N HCl with 2 parts 0.045% malachite green for 30 min.
In this evaluation, the inhibitory activity of a test compound against MurC, the enzyme which catalyzes the third step of bacterial cell wall bioxynthesis is determined. Experiments are performed by adding 2.5 μl buffer, 2.5 μl 0.5M NH4SO2, 5 μl 2 μM L-Ala, 5 μl enzyme solution and 6.5 μl test compound solution to each well in a 96-well microplate. After a pre-incubation period of 10 mins. at 23° C., 3.75 μl of a 0.75 μM solution of UDP-MurNac is added to each well. Following an incubation period of 10 mins. at 37° C., 210 μl stop solution and 50 μl of a 34% w/v sodium citrate solution are added and color is allowed to develop for 10 mins. at 23° C. (Lanzetta et al., Analytical Biochemistry, 1979, 95) Optical density readings are taken at 660 nm using a Molecular Devices Spectra Max 250 with Soft Max software. Controls are performed using the same procedure and omitting the addition of UDP-MurNac.
Using these values the IC50 is determined by linear regression analysis.

enterococci = assay: Minimum inhibitory concentration, microdilution broth method, enterococci; format: cell-based; conditions: Enterococcus faecalis, Mueller-Hinton broth, 18-22 hours at 35° C.
Experimental: as §1, §2

Streptococci = assay: Minimum inhibitory concentration, microdilution broth method, streptococci; format: cell-based; conditions: S. pneumo GC 1894; Mueller-Hinton broth with 5% horse blood, 18-22 hours at 35° C.
Experimental: as §1, §2

[3] = molecular target: E. coli Uridine-diphosphate-N-acetylmuramoyl-L-alanine: D-glutamate liease, MurD (Escherichia coli, UniProt P14900); assay: biochemical; conditions: (E) E. coli enzyme
Sequence of E. coli Uridine-diphosphate-N-acetylmuramoyl-L-alanine: D-glutamate liease, MurD (P14900 whole entry): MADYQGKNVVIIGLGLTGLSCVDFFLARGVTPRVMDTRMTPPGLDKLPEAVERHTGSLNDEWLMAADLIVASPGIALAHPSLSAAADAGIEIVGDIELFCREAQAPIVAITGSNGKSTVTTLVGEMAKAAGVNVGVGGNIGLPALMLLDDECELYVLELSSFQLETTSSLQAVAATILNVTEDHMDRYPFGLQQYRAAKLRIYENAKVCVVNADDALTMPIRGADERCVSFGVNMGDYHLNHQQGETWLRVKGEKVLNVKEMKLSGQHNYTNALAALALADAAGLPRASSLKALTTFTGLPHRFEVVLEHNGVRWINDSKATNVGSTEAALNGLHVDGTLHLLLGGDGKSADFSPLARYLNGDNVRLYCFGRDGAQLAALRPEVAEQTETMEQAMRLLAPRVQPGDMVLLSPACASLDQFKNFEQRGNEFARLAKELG
Experimental: S. aureus and E. coli Uridine-diphosphate-N-acetylmuramoyl-L-alanine: D-glutamate liease, MurD
The buffer is prepared from aqueous reagents with the following final concentrations: 83 mM Tris/HCl (pH 8.0), 50 mM MgCl2, and 2 mM ATP.
as §3, §5, §6, §4
In this evaluation, the inhibitory activity of a test compound against MurD, the enzyme which catalyzes the fourth step of bacterial cell wall biosynthesis is determined.

[4] = molecular target: E. coli Enopyruvyl-UPD-N-acetylglucosamine reductase, Mur B (Escherichia coli, UniProt P08373); assay: biochemical; conditions: (E) E. coli enzyme; for IC50: read-out: MurB IC50 (converted)
Sequence of E. coli Enopyruvyl-UPD-N-acetylglucosamine reductase, Mur B (P08373 whole entry): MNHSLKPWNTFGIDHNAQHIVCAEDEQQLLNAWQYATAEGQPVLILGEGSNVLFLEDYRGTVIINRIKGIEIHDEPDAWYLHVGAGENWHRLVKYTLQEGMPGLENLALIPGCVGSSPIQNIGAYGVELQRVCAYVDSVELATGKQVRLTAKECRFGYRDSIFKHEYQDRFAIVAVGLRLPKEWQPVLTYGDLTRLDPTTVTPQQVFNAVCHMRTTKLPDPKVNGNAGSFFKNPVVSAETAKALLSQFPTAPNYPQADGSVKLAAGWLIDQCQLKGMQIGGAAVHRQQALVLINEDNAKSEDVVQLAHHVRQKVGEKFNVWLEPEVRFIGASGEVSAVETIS
Experimental: S. aureus and E. coli Enopyruvyl-UPD-N-acetylglucosamine reductase, Mur B
Preparation of Tris/BME buffer:
Dilute 17.5 uL of aqueous 5 mM BME (2-mercaptoethanol) to 50 mL with 50 mM Tris/HCl (pH 8.0).
as §3
Dilute aqueous MurB stock solution (0.94 mg/mL) with 200 parts 50 mM Tris/2-BME buffer.
Synthesis of Substrate for MurB (MurA Product EP-UDP-GluNAc):
A mixture of 13 mg UDP-N-acetylglucosamine and 5.5 mg phosphoenolpyruvate are dissolved in 10 mL Tris/BME buffer forming 2 mM concentrations of each reagent in solution.
Preparation of Assay Buffer:
The assay buffer is prepared in water from reagents with the following final concentrations: 100 mM Tris/HCl (pH 8.0), 200 μM NADPH, 100 μM MurB substrate, 10 μM 2-mercaptoethanol, and 10 μM KCl.
Experiments are performed by adding 20 μL of a solution of test compound in a mixture of dimethylsulfoxide and water and 30 μL of enzyme solution to a well. After a pre-incubation period of 20 mins. at 23° C., 50 μL of Tris/BME buffer and 100 μL of assay buffer are added. […] Controls are performed using the same procedure and employing 20 μL of a blank dimethylsulfonide and solvent mixture in place of the test compound solution.
Using these values, the IC50 for each test compound is determined by linear regression analysis.

[5] = S. aureus GC 1131, read-out: MIC S. aureus GC 1131
[6] = S. aureus GC 4543, read-out: MIC S. aureus GC 4543
[7] = E. faecalis GC 2242, read-out: MIC E. faecalis GC 2242
[8] = E. faecalis GC 4555, read-out: MIC E. faecalis GC 4555

SMILES	MIC (staphylococci; [5]) [µg/mL]	MIC (staphylococci; [6]) [µg/mL]	IC50 [1] [µM]	IC50 [2] [µM]	MIC (enterococci; [7]) [µg/mL]	MIC (enterococci; [8]) [µg/mL]	MIC (Streptococci) [µg/mL]	IC50 [3] [µM]	IC50 [4] [µM]	MurA IC50 [1]	MurC IC50 [2]	MurD IC50 [3]	MurB IC50 [4]
O=C1O/C(=C\c2cc(C(F)(F)F)ccc2F)C(O)=C1c1ccc(-c2ccccc2)cc1 [Example 118]	16 (≈ 37.5 µM)	16 (≈ 37.5 µM)	35.2	44.6	16 (≈ 37.5 µM)	32 (≈ 75.1 µM)	4 (≈ 9.38 µM)	> 58.6	42.2				
CCCc1ccc(-c2ccc(C3=C(O)/C(=C/c4cc(F)cc(C(F)(F)F)c4)OC3=O)cc2)cc1 [Example 111]	32 (≈ 68.3 µM)	16 (≈ 34.2 µM)	> 53.4	> 53.4	1 (≈ 2.13 µM)	16 (≈ 34.2 µM)	0.25 (≈ 0.534 µM)	> 53.4	23.5				
CCOc1ccc(-c2ccc(C3=C(O)/C(=C/c4cccc(C(F)(F)F)c4)OC3=O)cc2)cc1 [Example 133]	32 (≈ 70.7 µM)	32 (≈ 70.7 µM)	44.2	48.6	8 (≈ 17.7 µM)	16 (≈ 35.4 µM)	0.5 (≈ 1.11 µM)	48.6	26.5				
O=C1O/C(=C\c2cc(C(F)(F)F)ccc2F)C(O)=C1c1cccc(-c2ccccc2)c1 [Example 121]	4 (≈ 9.38 µM)	2 (≈ 4.69 µM)	21.1	21.1	8 (≈ 18.8 µM)	16 (≈ 37.5 µM)	0.5 (≈ 1.17 µM)		16.4				
O=C1O/C(=C\c2cc(C(F)(F)F)ccc2Cl)C(O)=C1c1ccc(-c2ccccc2)c(F)c1 [Example 126]	1 (≈ 2.17 µM)	1 (≈ 2.17 µM)			1 (≈ 2.17 µM)	4 (≈ 8.68 µM)	0.25 (≈ 0.543 µM)			3 (E) μg/mL	5 (E) μg/mL	9 (E) μg/mL	1 (E) μg/mL
CC(C)(C)c1ccc(-c2ccc(C3=C(O)/C(=C/c4cccc(C(F)(F)F)c4Cl)OC3=O)cc2)cc1 [Example 116]	8 (≈ 16 µM)	8 (≈ 16 µM)	6.01	> 50.1	4 (≈ 8.02 µM)	4 (≈ 8.02 µM)	< 0.125	> 50.1	8.02				
